Series [1] deals with RAW264.7. Put plainly: Antiinflammatory activity in mouse RAW264.7 cells assessed as inhibition of LPS-induced nitrite production after 22 hrs by Griess method. The series is classed as functional, cell-based. The note with it: RAW264.7, 22 h.
The nature of series [2]: Cytotoxicity against mouse RAW264.7 cells assessed as cell viability at 50 uM after 22 hrs by MTT assay relative to control. It is filed as cell-based. As to conditions: read-out: Activity.
Series [3] relates to RAW264.7. As to the kind of experiment: Antiinflammatory activity in mouse RAW264.7 cells assessed as inhibition of LPS-induced nitrite production at 50 uM after 22 hrs by Griess method relative to LPS-treated control. The series is classed as functional. As to conditions: RAW264.7, 22 h.

As to `CCc1ccc(C(c2ccc([N+](=O)[O-])cc2)c2ccc(CC)o2)o1`, the concentration for half-maximal inhibition (IC50) in series [1] was 41.1 µM. Moreover, the viability at 22 h, 50 µM in series [2] stood at 101%. For the same compound, the inhibition at 50 µM in series [3] came out at 63.3%.
As for `Cc1ccc(C(c2ccc([N+](=O)[O-])cc2)c2ccc(C)o2)o1`, the IC50 in series [1] came out at 42.4 µM. In series [2], the viability at 22 h, 50 µM was 96.3%. The inhibition at 50 µM in series [3] worked out at 73.2%.
As for `CCC(CC)C(c1ccc(C)o1)c1ccc(C)o1`, the viability at 22 h, 50 µM in series [2] was found to be 101%. Besides, the inhibition at 50 µM in series [3] came out at 26.6%.
Turning to `c1ccc(C(c2ccc[nH]2)c2ccc[nH]2)cc1`, in series [2], the viability at 22 h, 50 µM stood at 100%. For the same compound, in series [3], the inhibition at 50 µM stood at 2.1%.
Consider `Cc1ccc(C(CC(C)C)c2ccc(C)o2)o1`, for which the viability at 22 h, 50 µM in series [2] amounted to 101%. Besides, the inhibition at 50 µM in series [3] came to 21.4%.
Turning to `CCc1ccc(C(c2ccccc2)c2ccc(CC)o2)o1`, the IC50 in series [1] was 70.5 µM. Also, the viability at 22 h, 50 µM in series [2] is 101%. For the same compound, the inhibition at 50 µM in series [3] amounted to 41.5%.
With `Cc1ccc(C(c2ccc(F)cc2)c2ccc(C)o2)o1`, in series [1], the IC50 is 44.8 µM. Further, in series [2], the viability at 22 h, 50 µM is 97.8%. Also, the inhibition at 50 µM in series [3] worked out at 64.2%.
As for `Cc1ccc(C(CCc2ccccc2)c2ccc(C)s2)s1`, the viability at 22 h, 50 µM in series [2] is 103%. For the same compound, the inhibition at 50 µM in series [3] was 21.5%.
As to `CCC(c1ccc(C)o1)c1ccc(C)o1`, the viability at 22 h, 50 µM in series [2] was 101%. For the same compound, the inhibition at 50 µM in series [3] came out at 30.9%.
Consider `CCc1ccc(C(CCc2ccccc2)c2ccc(CC)o2)o1`, for which the IC50 in series [1] was 74.2 µM. In series [2], the viability at 22 h, 50 µM was 101%. For the same compound, the inhibition at 50 µM in series [3] amounted to 39.4%.
`Cc1ccc(C(CCc2ccccc2)c2ccc(C)o2)o1`: the IC50 in series [1] worked out at 60.8 µM. The viability at 22 h, 50 µM in series [2] is 100%. For the same compound, the inhibition at 50 µM in series [3] turned out to be 46.8%.
On to `O=[N+]([O-])c1ccc(C(c2ccc[nH]2)c2ccc[nH]2)cc1`, for which the viability at 22 h, 50 µM in series [2] came out at 95.8%. In addition, the inhibition at 50 µM in series [3] stood at 26.9%.
`Cc1ccc(C(c2ccccc2)c2ccc(C)o2)o1`: the viability at 22 h, 50 µM in series [2] was determined as 99.3%. In series [3], the inhibition at 50 µM was found to be 33.4%.
As for `Cc1ccc(C(c2ccc(Br)cc2)c2ccc(C)o2)o1`, the viability at 22 h, 50 µM in series [2] was 101%. Besides, the inhibition at 50 µM in series [3] amounted to 24.9%.
For the compound `Cc1ccc(C(c2ccc(Cl)cc2)c2ccc(C)o2)o1`, the IC50 in series [1] was determined as 50.7 µM. Further, in series [2], the viability at 22 h, 50 µM came out at 101%. For the same compound, the inhibition at 50 µM in series [3] is 39.5%.
For the compound `CCCCC(c1ccc(C)o1)c1ccc(C)o1`, the viability at 22 h, 50 µM in series [2] worked out at 100%. In series [3], the inhibition at 50 µM stood at 31.7%.
With `COc1ccc(C(c2ccc(C)o2)c2ccc(C)o2)cc1`, the viability at 22 h, 50 µM in series [2] came out at 97.8%. In addition, the inhibition at 50 µM in series [3] was 34.6%.
`N=C(N)NN` [PIMAGEDINE]: the IC50 in series [1] was determined as 43.3 µM. Also, in series [2], the viability at 22 h, 50 µM was found to be 100%. In addition, the inhibition at 50 µM in series [3] stood at 70.2%.
Regarding `Cc1ccc(C(c2ccc(C)o2)C2CCCCC2)o1`, the viability at 22 h, 50 µM in series [2] is 102%. In series [3], the inhibition at 50 µM was 36.9%.
With `CCc1ccc(C(c2ccc([N+](=O)[O-])cc2)c2ccc(CC)[nH]2)[nH]1`, the IC50 in series [1] was found to be 56.9 µM. For the same compound, the viability at 22 h, 50 µM in series [2] was 99.2%. In addition, the inhibition at 50 µM in series [3] is 50.7%.
The matching figures for `COc1cc(C(c2ccc(C)o2)c2ccc(C)o2)ccc1O`: 44 µM, 98.2% and 63.7%.

The values are drawn from ChEMBL document CHEMBL3286268, “Green synthesis and anti-inflammatory studies of a series of 1,1-bis(heteroaryl)alkane derivatives” (Eur J Med Chem, 2014).
